Laboratory results published in ChEMBL document CHEMBL1201862, “PubChem BioAssay data set” (2004).
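Dose response: 5 concentrations. Exposure: 48 h. Format: 96-well plates. Endpoint: linear interpolation; highest concentration if not reached. GI50 is the concentration that inhibits growth by half.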 Active and inactive are the calls of the source. Cut-off read from the data, not from the text of the source: active = GI50 up to about 1.1 µM and inactive = higher.

Tests used:
Experiment in all cases: DTP human tumour cell line panel, 48 h
[1] = tested on: COLO 205
[2] = tested on: K562
[3] = tested on: SK-MEL-5
[4] = tested on: HCT-15
[5] = tested on: KM12
[6] = tested on: A549
[7] = tested on: HT-29
[8] = tested on: OVCAR-8
[9] = tested on: ACHN
[10] = tested on: SK-MEL-2
[11] = tested on: HOP-62
[12] = tested on: SNB-19
[13] = tested on: U-251
[14] = tested on: CAKI-1
[15] = tested on: M19-MEL
[16] = tested on: SNB-75
[17] = tested on: SF-295

SMILES | GI50 [1] | GI50 [2] | GI50 [3] | GI50 [4] [µM] | GI50 [5] | GI50 [6] | GI50 [7] | GI50 [8] | GI50 [9] | GI50 [10] | GI50 [11] | GI50 [12] | GI50 [13] | GI50 [14] | GI50 [15] | GI50 [16] | GI50 [17]
COc1cc(C2c3cc4c(cc3[C@@H](OCCN)[C@H]3COC(=O)C23)OCO4)cc(OC)c1O (some centres undefined) | 1.7 µM (inactive) | 0.181 µM (active) | 0.2 µM (active) | 2.87 | 0.491 µM (active) | 0.0518 µM (active) | 0.7 µM (active) | 0.55 µM (active) | 0.181 µM (active) | 0.322 µM (active) | 0.069 µM (active) | 0.104 µM (active) | 0.0405 µM (active) | 0.135 µM (active) | 0.196 µM (active) | 0.238 µM (active) | 0.108 µM (active)
COc1cc2c(cc1O)CN1CCC23C=C[C@@H](O)CC13 (some centres undefined) | 27.7 µM (inactive) | 51.3 µM (inactive) | 39.6 µM (inactive) | 68.4 | 54 µM (inactive) | 75.2 µM (inactive) | 47.5 µM (inactive) | 38.1 µM (inactive) | 57.5 µM (inactive) | 44.8 µM (inactive) | > 100 µM (inactive) | 55.6 µM (inactive) | 46.7 µM (inactive) | > 100 µM (inactive) | 38.1 µM (inactive) | 59.4 µM (inactive) | 96.2 µM (inactive)
CC(C)=CC(=O)N(C)C1C2CN3CCC(O2)C13 (centres undefined) | > 100 µM (inactive) | > 100 µM (inactive) | > 100 µM (inactive) | > 100 | > 100 µM (inactive) | > 100 µM (inactive) | > 100 µM (inactive) | > 100 µM (inactive) | > 100 µM (inactive) | > 100 µM (inactive) | > 100 µM (inactive) | > 100 µM (inactive) | > 100 µM (inactive) | > 100 µM (inactive) | > 100 µM (inactive) | > 100 µM (inactive) | > 100 µM (inactive)
O=C1C(c2ccc([N+](=O)[O-])cc2)=[N+]([O-])c2ccccc21 | 11.1 µM (inactive) | 26.5 µM (inactive) | 16.3 µM (inactive) | 17.3 | 34.8 µM (inactive) | 28 µM (inactive) | 37.6 µM (inactive) | 4.31 µM (inactive) | 16.8 µM (inactive) | > 100 µM (inactive) | 32.4 µM (inactive) | < 0.01 µM (active) | 16.5 µM (inactive) | 42.2 µM (inactive) | 17.2 µM (inactive) | 30.6 µM (inactive) | 42.1 µM (inactive)
COc1ccc(-c2cc(=O)c3c(O)c(O)c(OC)cc3o2)cc1O | > 100 µM (inactive) | > 100 µM (inactive) | > 100 µM (inactive) | > 100 | > 100 µM (inactive) | > 100 µM (inactive) | > 100 µM (inactive) | > 100 µM (inactive) | > 100 µM (inactive) | > 100 µM (inactive) | > 100 µM (inactive) | > 100 µM (inactive) | > 100 µM (inactive) | > 100 µM (inactive) | > 100 µM (inactive) | 31.5 µM (inactive) | > 100 µM (inactive)
CC1=C2C(=CC(C)(C)[C@@H]2O)C(=O)[C@](C)(O)C12CC2 [ILLUDIN M] | 0.0243 µM (active) | 0.0181 µM (active) | 0.0126 µM (active) | 0.0129 | 0.0284 µM (active) | 0.0275 µM (active) | < 0.0126 µM (active) | < 0.018 µM (active) | < 0.011 µM (active) | 0.0134 µM (active) | 0.0185 µM (active) | 0.027 µM (active) | 0.01 µM (active) | 0.0209 µM (active) | 0.0246 µM (active) | 0.0165 µM (active) | < 0.018 µM (active)
COC(=O)[C@H]1[C@H]2C[C@@H]3c4[nH]c5cc(OC)ccc5c4CCN3C[C@H]2C[C@@H](OC(=O)c2cc(OC)c(OC)c(OC)c2)[C@@H]1OC [RESERPINE] | 15.7 µM (inactive) | 7.11 µM (inactive) | 15.7 µM (inactive) | 20.3 | 18.4 µM (inactive) | 18 µM (inactive) | 12 µM (inactive) | 19.6 µM (inactive) | 15 µM (inactive) | 19.3 µM (inactive) | 12.6 µM (inactive) | 16.2 µM (inactive) | 15 µM (inactive) | 18.1 µM (inactive) | 20.9 µM (inactive) | 2.7 µM (inactive) | 17.7 µM (inactive)
